The values below come from US20100226919A1, “Antitumoral Treatments” (Pharma Mar, S.A., priority 2007, published 2010).

Where two headings read alike, the source gives them in different places. Some results are limits rather than exact numbers.

Assay [1] has as its system H322 cells. Conditions: read-out: IC50 (50% cell growth inhibition); H322, 72 h exposure; range given for four highly sensitive cell lines. The source says:
(§1) Nine human NSCLC cell lines that were characterized for EGFR, Ras, and p53 gene expression and sensitivity to a variety of antitumor agents (paclitaxel, premetrexed, erlotinib, etc.) were used as models to examine the cell sensitivity to PM02734 trifluoroacetate salt. These NSCLC cell lines are the following: H322, A549, H661, H1299, H1975 with L858R and T790M EGFR double mutation, H358, H460, H1650 with L858R EGFR mutation, and H3255 with […]. […] H3255 cell line is a gift from Dr. Pasi A. Jänne (Dana-Farber Cancer Institute, Boston Mass.).
(§2) Exponentially growing cells (1×10^5/ml) were plated in 96-well plates and allowed to attach overnight. Cells were exposed to various concentrations of PM02734 trifluoroacetate salt at 37° C. for 72 hours.
(§3) H322, A549, H1299 and H460 cells were plated in 96-well plates as described above. […] Enzyme Regul. […] The synergistic effects (CI index) were analyzed by software CalcuSyn.

The test system of assay [2] is H1299 cells. Conditions: read-out: IC50 (50% cell growth inhibition); H1299, 72 h exposure; range given for two cell lines of intermediate sensitivity.
From the text: as §1, §2, §3

The test system of assay [3] is H460 cells. Conditions: read-out: IC50 (50% cell growth inhibition); H460, 72 h exposure; resistant cell lines.
From the text: as §1, §2, §3

Assay [4] has as its system A549 cells. Conditions: read-out: IC50 (50% cell growth inhibition); A549, 72 h exposure; range given for four highly sensitive cell lines.
From the text: as §1, §2, §3

The subject of assay [5] is H322 cells. The assay can be described thus: Cell-cycle progression and apoptosis by propidium iodide FACS analysis. It is filed as cell-based, human. Conditions: H322, 0.5 μM, 0, 3, 6 and 24 hours. As to the method: H322 cells were plated in a 6-well plate and incubated with RPMI1640 medium with 10% fetal bovine serum at 37° C. overnight. […] At the indicated time point, cells were harvested by trypsinization and fixed with cold 75% ethanol at 4° C. overnight. Cells were incubated with 1 μg/ml of propidium iodide and 5 μg/ml of RNase I at room temperature for 3 hours. The cell-cycle distribution and apoptotic cells (Sub-G0/G1) were measured by FACS analysis (BD Biosciences, San Joes, Calif.).

The test system of assay [6] is H1975 cells. Particulars: read-out: IC50 (50% cell growth inhibition); H1975 (double EGFR mutant), 72 h exposure; range given for two cell lines of intermediate sensitivity.
From the text: as §1, §2

Assay [7] deals with H3255 cells. Particulars: read-out: IC50 (50% cell growth inhibition); H3255 (EGFR mutant), 72 h exposure; range given for four highly sensitive cell lines.
From the text: as §1, §2

For assay [8], the system named is H358 cells. Particulars: read-out: IC50 (50% cell growth inhibition); H358, 72 h exposure; resistant cell lines.
From the text: as §1, §2

In assay [9] the test system is H1650 cells. Conditions: read-out: IC50 (50% cell growth inhibition); H1650 (EGFR mutant), 72 h exposure; resistant cell lines.
From the text: as §1, §2

Assay [10] concerns H661 cells. Conditions: read-out: IC50 (50% cell growth inhibition); H661, 72 h exposure; range given for four highly sensitive cell lines.
From the text: as §1, §2

For assay [11], the system named is human A549 NSCLC cell line. As to the kind of experiment: A549 subcutaneous xenograft model in nude mice. Type of assay: in vivo. Conditions: PM02734 0.1 mg/kg i.v. 3 times per week for 2 weeks; erlotinib 50 mg/kg p.o. 5 times per week for 2 weeks; p<0.001. Here is the method: PM02734 was administered in its trifluoroacetate salt using water for injection as vehicle. Erlotinib was administered using sterile water as vehicle.
Nude mice (NUR-NU-F-M, female, 5-6 weeks old, Taconic Farm, Germantown N.Y.) were subcutaneously implanted with the human A549 NSCLC cell line (4.5×10^6 cells/mouse). Seven days later, mice were randomly divided into 4 groups with 5 mice per group. One group of mice received the combination treatment (PM02734: 0.1 mg/kg×3 times per week (on days 1, 3, and 5) for 2 weeks, i.v.; erlotinib: 50 mg/kg×5 times per week (on days 1, 2, 3, 4, and 5) for 2 weeks, p.o.). In this group erlotinib was given first followed two hours later by the administration of PM02734. The other groups were treated with PM02734 alone (0.1 mg/kg×3 times per week (on days 1, 3, and 5) for 2 weeks, i.v.), erlotinib alone (50 mg/kg×5 times per week (on days 1, 2, 3, 4, and 5) for 2 weeks, p.o.) or without treatment. Tumor size was measured twice a week. Tumor volume was calculated using the following equation: Tumor volume (mm^3)=0.5×longer diameter×(shorter diameter)^2 in millimeter. The experiment was terminated when ≧50% mice had tumors larger than 15 mm (i.e., the longer diameter>15 mm).

The test system of assay [12] is H322 cells. Conditions: only two of the nine cell lines sensitive; cited from earlier work.
Assay [13] relates to H3255 cells. Conditions: only two of the nine cell lines sensitive; cited from earlier work.
The subject of assay [14] is H322 cells. Conditions: from Ling et al., Mol Pharmacol 2007; cited from earlier work.
The subject of assay [15] is non-small cell lung (A549). Particulars: cited from earlier work.
The subject of assay [16] is colon (HT-29). Conditions: cited from earlier work.
Assay [17] concerns mouse leukemia (P388). Conditions: cited from earlier work.

For `C/C=C1\NC(=O)[C@H](Cc2ccccc2)NC(=O)[C@@H](C(C)C)NC(=O)[C@@H]([C@@H](C)CC)NC(=O)[C@H](NC(=O)[C@H](NC(=O)[C@H](CCCN)NC(=O)[C@H]2CCCN2C(=O)[C@H](NC(=O)[C@@H](NC(=O)[C@@H](NC(=O)[C@H](NC(=O)CC[C@@H](C)CC)C(C)C)[C@@H](C)O)C(C)C)C(C)C)[C@@H](C)CC)[C@@H](C)OC(=O)[C@H](C(C)C)NC1=O` [PM02734, (4S)-MeHex-D-Val-L-Thr-L-Val-D-Val-D-Pro-L-Orn-D-allo-Ile-cyclo(D-allo-Thr-D-allo-Ile-D-Val-L-Phe-Z-Dhb-L-Val)], the IC50 in assay [1] is 300 to 1250 nM; in [2] it was 2000 to 2800 nM; in assay [3], > 5000 nM; in assay [4] it was 300 to 1250 nM; in [6], 2000 to 2800 nM; in assay [7] it was 300 to 1250 nM. The IC50 in [8] was > 5000 nM; in assay [9], > 5000 nM; in assay [10] it was 300 to 1250 nM. The “apoptotic cells (Sub-G0/G1)” value in assay [5] is “apoptotic cell death in a time-dependent manner”. For the same compound, the “effect on cell-cycle progression” value in assay [5] was “cell cycle arrest at S-phase”. In addition, the “% treated vs. control tumor volume ratio (% T/C)” value in assay [11] came to 74%.

With `C#Cc1cccc(Nc2ncnc3cc(OCCOC)c(OCCOC)cc23)c1` [erlotinib, Erlotinib], the “cell sensitivity to erlotinib” value in assay [12] and in assay [13] was “sensitive” in each case. The “effect on cell-cycle progression” value in [14] is given as “G1/S phase arrest”.

Consider Kahalalide F, for which the “in vitro antitumor activity” value in assay [15], in assay [16] and in assay [17] was “micromolar activity” in each case.
